From ChEMBL document CHEMBL5346971, “Discovery of the First Irreversible HDAC6 Isoform Selective Inhibitor with Potent Anti-Multiple Myeloma Activity” (J Med Chem, 2023)
The source made the active and inactive calls. The calls are words filed in the database; no cut-off is given here.

Assays:
[1] = target: T1, Class 1 histone deacetylase (Homo sapiens) (UniProt Q13547+O15379+Q92769+Q9BY41); assay: Irreversible inhibition of class 1 HDAC in human A549 cells assessed as acetyl histone H4 level at 0.4 uM incubated for 5 hrs followed by drug wash-out for 6 hrs by western blot analysis relative to control; type: cell-based
T1 sequence (O15379 whole entry, looked up): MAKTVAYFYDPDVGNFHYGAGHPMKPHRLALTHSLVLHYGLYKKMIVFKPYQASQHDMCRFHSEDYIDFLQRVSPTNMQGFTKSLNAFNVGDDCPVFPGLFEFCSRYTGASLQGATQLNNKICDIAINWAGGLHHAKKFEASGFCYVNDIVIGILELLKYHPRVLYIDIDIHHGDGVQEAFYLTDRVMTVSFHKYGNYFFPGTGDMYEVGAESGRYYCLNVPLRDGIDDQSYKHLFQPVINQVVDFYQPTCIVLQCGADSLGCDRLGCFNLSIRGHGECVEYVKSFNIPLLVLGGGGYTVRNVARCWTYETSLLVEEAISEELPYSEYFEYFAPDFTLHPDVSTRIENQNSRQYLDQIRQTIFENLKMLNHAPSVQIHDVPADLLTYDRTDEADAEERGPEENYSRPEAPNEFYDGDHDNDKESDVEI
T1 sequence (Q13547 whole entry, looked up): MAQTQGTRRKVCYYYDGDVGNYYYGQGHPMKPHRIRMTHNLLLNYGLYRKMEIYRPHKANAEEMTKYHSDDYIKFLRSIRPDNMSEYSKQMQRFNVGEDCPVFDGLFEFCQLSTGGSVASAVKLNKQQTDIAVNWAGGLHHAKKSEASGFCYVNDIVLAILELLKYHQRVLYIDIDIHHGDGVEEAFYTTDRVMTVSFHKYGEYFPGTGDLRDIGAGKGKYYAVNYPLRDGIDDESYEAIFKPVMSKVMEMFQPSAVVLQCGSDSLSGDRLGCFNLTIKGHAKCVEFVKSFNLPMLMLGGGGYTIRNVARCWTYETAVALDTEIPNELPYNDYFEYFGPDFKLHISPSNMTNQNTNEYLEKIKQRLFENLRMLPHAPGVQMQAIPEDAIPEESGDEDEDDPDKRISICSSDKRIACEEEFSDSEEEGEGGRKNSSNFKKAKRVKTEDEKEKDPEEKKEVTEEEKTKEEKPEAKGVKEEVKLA
T1 sequence (Q92769 whole entry, looked up): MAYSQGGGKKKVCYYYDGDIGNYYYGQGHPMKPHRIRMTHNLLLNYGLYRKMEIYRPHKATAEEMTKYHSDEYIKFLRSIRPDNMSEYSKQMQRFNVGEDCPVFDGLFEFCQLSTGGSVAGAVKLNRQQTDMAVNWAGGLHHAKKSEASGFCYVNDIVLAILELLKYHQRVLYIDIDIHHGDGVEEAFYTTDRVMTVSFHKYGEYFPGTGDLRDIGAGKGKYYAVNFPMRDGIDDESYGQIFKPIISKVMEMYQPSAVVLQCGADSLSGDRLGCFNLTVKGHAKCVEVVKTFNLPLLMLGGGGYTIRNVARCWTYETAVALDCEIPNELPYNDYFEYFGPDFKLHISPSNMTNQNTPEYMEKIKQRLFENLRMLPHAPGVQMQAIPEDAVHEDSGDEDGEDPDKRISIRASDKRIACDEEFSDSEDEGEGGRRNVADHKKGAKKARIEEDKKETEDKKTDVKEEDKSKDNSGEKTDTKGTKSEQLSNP
T1 sequence (Q9BY41 whole entry, looked up): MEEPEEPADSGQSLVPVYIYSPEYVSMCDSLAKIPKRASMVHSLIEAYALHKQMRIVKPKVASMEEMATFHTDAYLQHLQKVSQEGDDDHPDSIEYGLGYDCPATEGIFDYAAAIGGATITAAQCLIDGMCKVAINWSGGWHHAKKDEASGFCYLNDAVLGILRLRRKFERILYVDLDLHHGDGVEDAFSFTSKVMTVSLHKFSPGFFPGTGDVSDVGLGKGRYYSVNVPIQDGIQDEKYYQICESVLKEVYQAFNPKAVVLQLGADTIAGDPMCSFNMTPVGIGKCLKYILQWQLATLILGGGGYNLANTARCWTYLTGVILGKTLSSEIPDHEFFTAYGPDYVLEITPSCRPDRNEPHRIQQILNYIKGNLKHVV

[2] = target: T1, Class 1 histone deacetylase (Homo sapiens); assay: Irreversible inhibition of class 1 HDAC in human A549 cells assessed as acetyl histone H3 level at 0.4 uM incubated for 5 hrs followed by drug wash-out and measured immediately after drug wash-out by western blot analysis relative to control; type: cell-based
[3] = target: T2, Protein deacetylase HDAC6 (Homo sapiens) (UniProt Q9UBN7); assay: Irreversible inhibition of HDAC6 in human A549 cells assessed as acetyl alpha-tubulin level at 0.4 uM incubated for 5 hrs followed by drug wash-out for 6 hrs by western blot analysis relative to control; type: cell-based
T2 sequence (whole entry): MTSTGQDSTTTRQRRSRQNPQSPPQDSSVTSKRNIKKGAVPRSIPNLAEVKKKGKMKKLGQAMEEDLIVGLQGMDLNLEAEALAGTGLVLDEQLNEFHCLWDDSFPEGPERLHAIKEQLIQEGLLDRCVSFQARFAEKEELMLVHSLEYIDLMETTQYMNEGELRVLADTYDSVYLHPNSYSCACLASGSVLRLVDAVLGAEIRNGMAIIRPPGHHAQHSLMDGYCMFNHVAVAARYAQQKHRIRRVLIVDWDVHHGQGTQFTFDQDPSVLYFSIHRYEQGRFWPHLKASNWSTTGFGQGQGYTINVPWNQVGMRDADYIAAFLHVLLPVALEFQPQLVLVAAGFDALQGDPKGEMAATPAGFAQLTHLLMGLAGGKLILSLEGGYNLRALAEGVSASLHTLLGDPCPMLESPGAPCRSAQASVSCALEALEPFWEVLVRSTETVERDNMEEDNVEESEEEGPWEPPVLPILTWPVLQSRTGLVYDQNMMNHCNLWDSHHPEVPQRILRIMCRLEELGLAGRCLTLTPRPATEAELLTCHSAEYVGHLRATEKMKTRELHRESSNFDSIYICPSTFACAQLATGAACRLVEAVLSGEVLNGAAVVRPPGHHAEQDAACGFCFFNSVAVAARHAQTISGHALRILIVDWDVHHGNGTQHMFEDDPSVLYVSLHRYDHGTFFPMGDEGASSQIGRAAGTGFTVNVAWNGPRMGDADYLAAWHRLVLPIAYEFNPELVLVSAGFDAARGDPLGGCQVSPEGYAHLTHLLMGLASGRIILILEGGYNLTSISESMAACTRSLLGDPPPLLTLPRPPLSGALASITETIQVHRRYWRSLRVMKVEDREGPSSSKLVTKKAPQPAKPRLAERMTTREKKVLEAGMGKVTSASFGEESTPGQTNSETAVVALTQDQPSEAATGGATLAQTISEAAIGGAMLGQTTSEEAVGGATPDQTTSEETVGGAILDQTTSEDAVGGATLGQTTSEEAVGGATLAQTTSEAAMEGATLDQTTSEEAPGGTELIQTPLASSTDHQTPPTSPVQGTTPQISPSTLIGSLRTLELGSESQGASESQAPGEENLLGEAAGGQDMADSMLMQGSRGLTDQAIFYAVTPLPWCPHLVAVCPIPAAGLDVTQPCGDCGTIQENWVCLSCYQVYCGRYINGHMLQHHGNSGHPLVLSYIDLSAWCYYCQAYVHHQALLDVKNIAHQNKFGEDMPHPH

Histone deacetylase 1 = Histone deacetylase 1 (Homo sapiens, UniProt Q13547); assay: Inhibition of C-terminal His/FLAG-tagged human full length recombinant HDAC1 (1 to 482 residues) expressed in Sf9 cells using Boc-Lys(acetyI)-AMC as substrate preincubated with enzyme for 1 hr followed by substrate addition and measured after 30 mins by fluorescence based analysis
Chain of Histone deacetylase 1 (Q13547 whole entry, the tested form may be a part): as the sequence (Q13547 whole entry, looked up) above

Histone deacetylase 9 = Histone deacetylase 9 (Homo sapiens, UniProt Q9UKV0); assay: Inhibition of C-terminal His-tagged human recombinant HDAC9 (604 to 1066 residues) expressed in baclovirus-infected Sf9 cells using Boc-Lys(trifluoroacety1)-AMC as substrate preincubated with enzyme for 1 hr followed by substrate addition and measured after 30 mins by fluorescence based analysis
Chain of Histone deacetylase 9 (Q9UKV0 whole entry, the tested form may be a part): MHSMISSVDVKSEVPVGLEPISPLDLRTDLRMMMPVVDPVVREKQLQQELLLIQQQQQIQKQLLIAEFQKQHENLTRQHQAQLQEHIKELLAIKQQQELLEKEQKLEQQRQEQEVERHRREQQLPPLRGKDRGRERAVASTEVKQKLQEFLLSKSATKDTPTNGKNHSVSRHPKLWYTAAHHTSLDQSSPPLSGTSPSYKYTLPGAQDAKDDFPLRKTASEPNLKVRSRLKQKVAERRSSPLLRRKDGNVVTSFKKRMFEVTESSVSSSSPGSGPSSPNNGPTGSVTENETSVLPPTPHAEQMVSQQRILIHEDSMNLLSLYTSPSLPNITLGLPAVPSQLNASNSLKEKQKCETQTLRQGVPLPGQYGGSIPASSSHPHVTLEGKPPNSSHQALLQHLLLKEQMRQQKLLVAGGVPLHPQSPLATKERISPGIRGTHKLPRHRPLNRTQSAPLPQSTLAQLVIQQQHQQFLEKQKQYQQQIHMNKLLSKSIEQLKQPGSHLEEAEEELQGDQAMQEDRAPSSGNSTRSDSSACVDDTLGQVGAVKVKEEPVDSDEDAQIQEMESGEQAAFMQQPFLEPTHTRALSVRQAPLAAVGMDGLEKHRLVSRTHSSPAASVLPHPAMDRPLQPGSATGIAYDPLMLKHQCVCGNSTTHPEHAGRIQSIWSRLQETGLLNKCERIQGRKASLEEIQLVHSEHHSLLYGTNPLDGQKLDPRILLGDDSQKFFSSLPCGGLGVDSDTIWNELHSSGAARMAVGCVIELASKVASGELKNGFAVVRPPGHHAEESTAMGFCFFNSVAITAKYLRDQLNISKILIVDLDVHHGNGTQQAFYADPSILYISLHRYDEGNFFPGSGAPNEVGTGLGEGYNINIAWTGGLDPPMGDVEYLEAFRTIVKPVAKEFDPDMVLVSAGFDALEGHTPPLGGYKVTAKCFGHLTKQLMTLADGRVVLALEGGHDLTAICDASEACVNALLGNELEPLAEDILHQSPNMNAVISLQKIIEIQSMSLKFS

Histone deacetylase 11 = target: T3, Histone deacetylase 11 (Homo sapiens, UniProt Q96DB2); assay: Inhibition of human full length recombinant HDAC11 (1 to 347 residues) expressed in Sf9 cells using acetyl-ETDKmyr-AMC as substrate preincubated with enzyme for 1 hr followed by substrate addition and measured after 30 mins by fluorescence based analysis
T3 sequence (Q96DB2 whole entry): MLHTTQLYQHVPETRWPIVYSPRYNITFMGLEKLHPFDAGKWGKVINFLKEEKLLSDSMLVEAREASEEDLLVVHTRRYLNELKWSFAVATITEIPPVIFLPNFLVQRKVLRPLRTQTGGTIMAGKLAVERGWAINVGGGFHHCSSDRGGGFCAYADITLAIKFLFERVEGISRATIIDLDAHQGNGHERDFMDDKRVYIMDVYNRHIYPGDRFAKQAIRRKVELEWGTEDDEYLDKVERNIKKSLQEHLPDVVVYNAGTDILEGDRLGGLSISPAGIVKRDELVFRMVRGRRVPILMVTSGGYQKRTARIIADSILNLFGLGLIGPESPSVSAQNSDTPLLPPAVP

RPMI-8226 [4] = assay: Antiproliferative activity against human RPMI-8226 cells assessed as inhibition of cell proliferation incubated for 48 hrs by CCK8 assay; type: functional, cell-based; conditions: RPMI-8226, 48 h
RPMI-8226 [5] = assay: Induction of apoptosis in human RPMI-8226 cells assessed as proportion of early apoptotic cells at 0.1 uM incubated for 24 hrs by AnnexinV-FITC/PI staining based flow cytometry (reference value: 10.63%); type: functional, cell-based
RPMI-8226 [6] = assay: Induction of apoptosis in human RPMI-8226 cells assessed as proportion of necrotic cells at 0.1 uM incubated for 24 hrs by AnnexinV-FITC/PI staining based flow cytometry (reference value: 0.49%); type: functional, cell-based
RPMI-8226 [7] = assay: Induction of apoptosis in human RPMI-8226 cells assessed as proportion of viable cells at 0.5 uM incubated for 24 hrs by AnnexinV-FITC/PI staining based flow cytometry (reference value: 84.71%); type: functional, cell-based
RPMI-8226 [8] = assay: Induction of cell cycle arrest in human RPMI-8226 cells assessed as proportion of cells at G1 phase at 0.1 uM incubated for 24 hrs by PI staining based flow cytometry (reference value: 33.5%); type: functional
RPMI-8226 [9] = assay: Induction of cell cycle arrest in human RPMI-8226 cells assessed as proportion of cells at G2/M phase at 0.1 uM incubated for 24 hrs by PI staining based flow cytometry (reference value: 19.8%); type: functional
RPMI-8226 [10] = assay: Induction of apoptosis in human RPMI-8226 cells incubated for 24 hrs by AnnexinV-FITC/PI staining based flow cytometry; type: functional, cell-based; conditions: dose 0.1-0.5 µM

SMILES: O=C(NO)c1ccc(COc2no[n+]([O-])c2S(=O)(=O)c2ccccc2)cc1
- fold change (FC) [1]: 1
- fold change (FC) [2]: 1
- fold change (FC) [3]: 5.1
- IC50 (Histone deacetylase 1): 4.8 µM
- IC50 (Histone deacetylase 9): > 40 µM
- IC50 (Histone deacetylase 11): 5.3 µM
- IC50 (RPMI-8226 [4]): 0.17 µM
- Activity (RPMI-8226 [5]): Active
- Activity (RPMI-8226 [6]): Active
- Activity (RPMI-8226 [7]): Active
- Activity (RPMI-8226 [8]): 28.8%
- Activity (RPMI-8226 [9]): 21.4%
- Activity (RPMI-8226 [10]): Dose-Dependent Effect
